{
  "source": "patent US9427444B2",
  "about": "“Pharmaceutical and cosmetic compositions for accelerated healing of wounds and other surface damages” (MITOTECH SA, priority 2007, dated 2016)",
  "key": {"[1]": {"system": "LAR epithelial cell line", "assay": "Epithelial layer movement into the wound in vitro", "assay_type": "cell-based", "protocol": "Along with fibroblast movement and contraction, in wound healing a formation plays an important role of new epithelial layers in the wound—so called reepithalialization. Study on this process in vitro was carried out using LAR epithelial cell line. […] Ability of cell to form tight “islands” and single epithelial layer also weren't disturbed. Studies on expression of intracellular contact protein E-cadherin specific for epithelium confirmed epithelial structure stability in presence of SkQ1. […] This effect was studied in vitro using the same mode that was used in fibroblast studies. […] Unlike fibroblasts, epithelial cells moved into the wound in a single layer with all characteristic morphology and intracellular contacts."}, "[2]": {"system": "human subdermal diploid fibroblasts", "assay": "Differentiation of human subdermal fibroblasts into myofibroblasts (cell square, unstriped muscle actin, vinculin contacts)", "assay_type": "cell-based", "source_text": "Myofibroblasts emerge as result of normal fibroblast differentiation and in comparison to them have bigger size, better adherence to the substrate (in vivo to extracellular matrix, in vitro to plastic), different cytoskeleton structure and contractive activity.\nMain myofibroblast marker is unstriped muscle actin form, which mediates its contraction activity and almost never can be found in normal fibroblasts.\nBetter adherence to the substrate is also a characteristic feature of myofibroblasts, it promotes its movement into wound and brace of wound edges. In our experiments we estimated number of tight contacts between cell and substrate, containing special focal adhesion protein vinculin.\nIt is important to notice that short incubation with SkQ1 for 1-2 hours is enough for induction of this transformation, and further a population of myofibroblasts is supported in a media without SkQ1 for at least 4-6 weeks."}, "[3]": {"system": "fibroblast culture", "assay": "IF staining of cytoskeleton and fibronectin in fibroblast culture treated with SkQ1", "assay_type": "cell-based, human", "source_text": "It points to contraction activity and cell movement enhancement. […] This was done by IF staining of actin and myosin in fibroblast stress-fibrils, treated with SkQ1 and from control group.\nFurther on we analyzed a consistence of main extracellular matrix protein fibronectin in fibroblast culture, treated with SkQ1. […] Fibronectinic matrix forms as a result of both cell secretion and reorganization of matrix components present in culture in formation of serum. Fibronectin produced by fibroblasts has certain structural alterity that gives a possibility to construct selective antibodies."}, "[4]": {"system": "human fibroblast monolayer", "assay": "Human fibroblast monolayer damage, model of wound in vitro", "assay_type": "cell-based", "source_text": "Human fibroblast monolayer damage—is a model of wound in vitro, as fibroblasts are basement of connective tissue, which structure falls with any injury or damage. It is known that fibroblasts are one of the first to enter wounded area that considerably determines its healing. Fibroblast monolayer was damaged with sterile scalpel; as a result a 2000 micron wide distant break appeared. Ability of fibroblasts to heal the wound was estimated by length of cell migration zone, appeared during certain time period (1 day) inside the wound. Cell migration zone length depends directly on healing speed of artificially given wound. Results of several different SkQ1 concentrations test are shown on FIG. 4."}},
  "data": [
    {"smiles": "CC1=C(C)C(=O)C(CCCCCCCCCC[P+](c2ccccc2)(c2ccccc2)c2ccccc2)=CC1=O.[Br-]", "note": "[SkQ1]", "values": [
      {"measurement": "actinic stress-fibrils in the cells", "setting": "[1]", "value": "significantly raised"},
      {"measurement": "cell movement into the wound", "setting": "[1]", "value": "significantly accelerates cell movement into the wound"},
      {"measurement": "morphological changes of epithelial cells", "setting": "[1]", "value": "didn't cause significant morphological changes"},
      {"measurement": "persistence of effect on epithelial cells after drug withdrawal", "setting": "[1]", "value": "continued long after drug withdrawal"},
      {"measurement": "incubation time enough for induction of transformation into myofibroblasts", "setting": "[2]", "value": "1 to 2", "unit": "h"},
      {"measurement": "average square value increase", "setting": "[2]; SkQ1 20 nM, whole population", "value": "increases more then two-three fold"},
      {"measurement": "number of vinculin-containing contacts per cell", "setting": "[2]; SkQ1 treated versus control cells, FIG. 3", "value": "increase of number of contacts per cell"},
      {"measurement": "average square of significant group of cells over control value (cell size distribution)", "setting": "[2]; SkQ1 treatment, FIG. 2", "value": "5-6 fold"},
      {"measurement": "unstriped muscle actin form (IF staining) in giant cells versus normal fibroblasts", "setting": "[2]; after SkQ1 treatment", "value": "heavy increase"},
      {"measurement": "time myofibroblast population is supported in media without SkQ1", "setting": "[2]; after short incubation with SkQ1", "value": "4-6 weeks"},
      {"measurement": "cell skeleton reorganization, stress-fibrils", "setting": "[3]; IF staining of actin and myosin", "value": "active cell skeleton reorganization with stress-fibril enhancement"},
      {"measurement": "fibronectin level (IF staining)", "setting": "[3]; monolayer areas and cell migration zone", "value": "significant increase"},
      {"measurement": "intracellular expression of fibronectin", "setting": "[3]; selective antibodies to fibroblast fibronectin", "value": "raises"},
      {"measurement": "length of cell migration zone inside the wound", "setting": "[4]; 1 day, 2000 micron wide break, FIG. 4", "value": "short period incubation with SkQ1 caused effect, which continued for a long time even without SkQ1"},
      {"measurement": "number of cell rows entered to the wound", "setting": "[4]; 24 hours, FIG. 5", "value": "Injury healing acceleration"}
    ]}
  ]
}
